Data from ChEMBL document CHEMBL5252650, “An ATG4B inhibitor blocks autophagy and sensitizes Sorafenib inhibition activities in HCC tumor cells” (Bioorg Med Chem, 2023).
Active and inactive are the calls of the source. The calls are words filed in the database; no cut-off is given here.

Columns and labels:
SK-HEP1 [1] = assay: Cytotoxicity against human SK-HEP1 cells assessed as reduction in cell viability incubated for 72 hrs by CellTiter-Glo luminescent assay; assay type: functional, cell-based; settings: SK-HEP1, 72 h
Huh-7 [2] = assay: Inhibition of autophagy in human Huh-7 cells assessed as fold increase in LC3B-II protein expression at 20 uM incubated for 24 hrs by immunoblot analysis relative to control; assay type: functional
Huh-7 [3] = assay: Inhibition of colony formation in human Huh-7 cells at 10 uM incubated for 14 days in presence of sorafenib by crystal violet staining based analysis; assay type: functional, cell-based; settings: time 14.0 day
[4] = Inhibition of sorafenib-induced autophagic flux in human Huh-7 cells assessed as fold increase in p62 protein expression at 20 uM incubated for 24 hrs in presence of 5 uM sorafenib by immunoblot analysis relative to control; assay type: functional
IMR-90 = assay: Cytotoxicity against human IMR-90 cells; assay type: toxicity, cell-based
[5] = Inhibition of sorafenib-induced autophagic flux in human Huh-7 cells assessed as fold increase in p62 protein expression at 20 uM incubated for 24 hrs in presence of 10 uM sorafenib by immunoblot analysis relative to control; assay type: functional
[6] = Inhibition of sorafenib-induced autophagic flux in human SK-HEP1 cells assessed as fold increase in LC3B-II protein expression at 20 uM incubated for 24 hrs in presence of 10 uM sorafenib by immunoblot analysis relative to control; assay type: functional
[7] = Inhibition of sorafenib-induced autophagic flux in human Huh-7 cells assessed as fold increase in LC3B-II protein expression at 20 uM incubated for 24 hrs in presence of 10 uM sorafenib by immunoblot analysis relative to control; assay type: functional
SK-HEP1 [8] = assay: Inhibition of autophagy in human SK-HEP1 cells assessed as fold increase in LC3B-II protein expression at 20 uM incubated for 24 hrs by immunoblot analysis relative to control; assay type: functional
[9] = Inhibition of sorafenib-induced autophagic flux in human SK-HEP1 cells assessed as fold increase in p62 protein expression at 20 uM incubated for 24 hrs in presence of 5 uM sorafenib by immunoblot analysis relative to control; assay type: functional
[10] = molecular target: T1, Cysteine protease ATG4B (Homo sapiens) (UniProt Q9Y4P1); assay: Binding affinity to N-terminal His6/SUMO-tagged full length human ATG4B expressed in Escherichia coli BL21 (DE3) cells at 100 uM by CPMG spectroscopy
T1 sequence (whole entry): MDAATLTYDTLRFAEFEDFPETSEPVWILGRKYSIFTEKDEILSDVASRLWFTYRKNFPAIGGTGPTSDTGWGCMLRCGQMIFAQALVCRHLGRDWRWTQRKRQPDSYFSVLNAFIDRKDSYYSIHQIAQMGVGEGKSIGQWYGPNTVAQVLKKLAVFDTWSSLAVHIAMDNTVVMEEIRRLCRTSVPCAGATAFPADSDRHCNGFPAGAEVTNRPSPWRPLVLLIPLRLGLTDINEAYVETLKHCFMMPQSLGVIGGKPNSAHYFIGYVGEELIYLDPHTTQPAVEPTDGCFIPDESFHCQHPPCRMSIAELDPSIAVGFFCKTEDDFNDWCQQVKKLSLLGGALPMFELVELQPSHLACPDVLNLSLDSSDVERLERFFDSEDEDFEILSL

SK-HEP1 [11] = assay: Inhibition of autophagy in human SK-HEP1 cells assessed as fold increase in LC3B-II protein expression at 10 uM incubated for 24 hrs by immunoblot analysis relative to control; assay type: functional
Cysteine protease ATG4B [12] = molecular target: T2, Cysteine protease ATG4B (Homo sapiens, UniProt Q9Y4P1); assay: (§1) Inhibition of N-terminal His6/SUMO-tagged full length human ATG4B expressed in Escherichia coli BL21 (DE3) cells using His-LC3B-GST as substrate preincubated with enzyme for 1 hr followed by substrate addition for 1 hr by HTRF assay
T2 sequence (Q9Y4P1 whole entry): T1 sequence (whole entry)

[13] = molecular target: T1, Cysteine protease ATG4B (Homo sapiens); assay: as §1; settings: time 2.0 hrs
Huh-7 [14] = assay: Inhibition of sorafenib-induced autophagic flux in human Huh-7 cells overexpressing TurboRFP-EGFP-LC3B assessed as increase in yellow dot puncta formation at 10 uM incubated for 24 hrs in presence of 5 uM sorafenib by immunofluorescence assay; assay type: functional, cell-based
Huh-7 [15] = assay: Inhibition of autophagy in human Huh-7 cells assessed as fold increase in LC3B-II protein expression at 10 uM incubated for 24 hrs by immunoblot analysis relative to control; assay type: functional
Huh-7 [16] = assay: Inhibition of autophagy in human Huh-7 cells assessed as reduction in LC3B-I protein expression at 10 to 20 uM incubated for 24 hrs by immunoblot analysis; assay type: functional, cell-based; settings: dose 10-20 µM
SK-HEP1 [17] = assay: Potentiation of sorafenib-induced antiproliferative activity against human SK-HEP1 cells assessed as inhibition of cell proliferation at 20 uM incubated for 5 days in presence of sorafenib by CTG assay; assay type: functional, cell-based; settings: time 5.0 day
SK-HEP1 [18] = assay: Inhibition of autophagy in human SK-HEP1 cells assessed as fold increase in p62 protein expression at 20 uM incubated for 24 hrs by immunoblot analysis relative to control; assay type: functional
Huh-7 [19] = assay: Inhibition of autophagy in human Huh-7 cells assessed as fold increase in p62 protein expression at 20 uM incubated for 24 hrs by immunoblot analysis relative to control; assay type: functional
MRC5 = assay: Cytotoxicity against human MRC5 cells; assay type: toxicity, cell-based
[20] = Inhibition of sorafenib-induced autophagic flux in human SK-HEP1 cells assessed as fold increase in p62 protein expression at 20 uM incubated for 24 hrs in presence of 10 uM sorafenib by immunoblot analysis relative to control; assay type: functional
[21] = molecular target: T1, Cysteine protease ATG4B (Homo sapiens); assay: Inhibition of N-terminal His6/SUMO-tagged full length human ATG4B expressed in Escherichia coli BL21 (DE3) cells assessed as reduction in substrate cleavage using His-LC3B-GST as substrate preincubated with enzyme for 1 hr followed by substrate addition for 30 mins by gel electrophoresis analysis; settings: dose 3.125-50 µM, time 1.5 hrs
SK-HEP1 [22] = assay: Inhibition of autophagy in human SK-HEP1 cells assessed as reduction in LC3B-I protein expression at 10 to 20 uM incubated for 24 hrs by immunoblot analysis; assay type: functional, cell-based; settings: dose 10-20 µM
SK-HEP1 [23] = assay: Inhibition of autophagy in human SK-HEP1 cells assessed as fold increase in p62 protein expression at 10 uM incubated for 24 hrs by immunoblot analysis relative to control; assay type: functional
[24] = Inhibition of sorafenib-induced autophagic flux in human SK-HEP1 cells assessed as fold increase in LC3B-II protein expression at 20 uM incubated for 24 hrs in presence of 5 uM sorafenib by immunoblot analysis relative to control; assay type: functional
Huh-7 [25] = assay: Inhibition of autophagy in human Huh-7 cells assessed as fold increase in p62 protein expression at 10 uM incubated for 24 hrs by immunoblot analysis relative to control; assay type: functional
Huh-7 [26] = assay: Inhibition of autophagy in human Huh-7 cells overexpressing TurboRFP-EGFP-LC3B assessed as increase in number of red dots at 10 uM incubated for 24 hrs by immunofluorescence assay; assay type: functional, cell-based
[27] = Inhibition of sorafenib-induced autophagic flux in human Huh-7 cells assessed as fold increase in LC3B-II protein expression at 20 uM incubated for 24 hrs in presence of 5 uM sorafenib by immunoblot analysis relative to control; assay type: functional
Cysteine protease ATG4B [28] = molecular target: T2, Cysteine protease ATG4B; assay: Binding affinity to N-terminal His6/SUMO-tagged full length human ATG4B expressed in Escherichia coli BL21 (DE3) cells by SPR assay
Huh-7 [29] = assay: Potentiation of sorafenib-induced antiproliferative activity against human Huh-7 cells assessed as inhibition of cell proliferation at 20 uM incubated for 5 days in presence of sorafenib by CTG assay; assay type: functional, cell-based; settings: time 5.0 day
SK-HEP1 [30] = assay: Inhibition of colony formation in human SK-HEP1 cells at 10 uM incubated for 14 days in presence of sorafenib by crystal violet staining based analysis; assay type: functional, cell-based; settings: time 14.0 day
Huh-7 [31] = assay: Cytotoxicity against human Huh-7 cells assessed as reduction in cell viability incubated for 72 hrs by CellTiter-Glo luminescent assay; assay type: functional, cell-based; settings: Huh-7, 72 h
Huh-7 [32] = assay: Inhibition of autophagy in human Huh-7 cells overexpressing TurboRFP-EGFP-LC3B assessed as increase in yellow dot puncta formation at 10 uM incubated for 24 hrs by immunofluorescence assay; assay type: functional, cell-based

SMILES: S=C(Nc1ccc2nc(-c3ccco3)c(-c3ccco3)nc2c1)N1CCCCCC1
- IC50 (SK-HEP1 [1]): 23.6 µM
- fold change (FC) (Huh-7 [2]): 1.6
- inhibition (Huh-7 [3]): Active
- fold change (FC) [4]: 1.1
- Activity (IMR-90): Non-Toxic
- fold change (FC) [5]: 0.84
- fold change (FC) [6]: 0.66
- fold change (FC) [7]: 0.64
- fold change (FC) (SK-HEP1 [8]): 1.6
- fold change (FC) [9]: 0.85
- Activity [10]: Active
- fold change (FC) (SK-HEP1 [11]): 1.46
- IC50 (Cysteine protease ATG4B [12]): 3.08 µM
- inhibition [13]: Dose-Dependent Effect
- inhibition (Huh-7 [14]): Active
- fold change (FC) (Huh-7 [15]): 1.5
- inhibition (Huh-7 [16]): Active
- Activity (SK-HEP1 [17]): Active
- fold change (FC) (SK-HEP1 [18]): 2.4
- fold change (FC) (Huh-7 [19]): 2.8
- Activity (MRC5): Non-Toxic
- fold change (FC) [20]: 0.82
- inhibition [21]: Dose-Dependent Effect
- inhibition (SK-HEP1 [22]): Active
- fold change (FC) (SK-HEP1 [23]): 2.1
- fold change (FC) [24]: 0.82
- fold change (FC) (Huh-7 [25]): 2.3
- inhibition (Huh-7 [26]): Active
- fold change (FC) [27]: 0.76
- Kd (Cysteine protease ATG4B [28]): 14.3 µM
- Activity (Huh-7 [29]): Active
- inhibition (SK-HEP1 [30]): Active
- IC50 (Huh-7 [31]): 25.3 µM
- inhibition (Huh-7 [32]): Active
